Where “and” joins values, the source holds several entries; their conditions need not be identical. Equal values may be shown once.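 Tested at 5 concentrations; 48 h exposure; 96-well plates; endpoints linearly interpolated, else capped at highest concentration. GI50: concentration for 50% inhibition of growth. TGI: concentration producing complete growth inhibition.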
Tests used:
Experiment in all cases: NCI anticancer screen, dose series, 48 h
[1] = system: HCT-15 colon
[2] = system: OVCAR-5 ovarian
[3] = system: SF-268 CNS
[4] = system: SK-OV-3 ovarian
[5] = system: LOX IMVI melanoma
[6] = system: HCT-116 colon
[7] = system: UACC-62 melanoma
[8] = system: COLO 205 colon
[9] = system: CAKI-1 renal
[10] = system: RXF 393 renal

Row | Compound | GI50 [1] | TGI [1] | GI50 [2] | TGI [2] | GI50 [3] | TGI [3] | GI50 [4] | TGI [4] | GI50 [5] | TGI [5] | GI50 [6] | TGI [6] | GI50 [7] | TGI [7] | GI50 [8] | TGI [8] | GI50 [9] | TGI [9] | GI50 [10] | TGI [10]
1 | NC(=O)c1cccc(Nc2nccc(Nc3cccc4[nH]ncc34)n2)c1 | > 25 µM | > 25 µM | 7.5 µM | > 25 µM | 8.45 µM | > 25 µM | 8.45 µM | > 25 µM | 6.07 µM | > 18.4 µM | 8.58 µM | > 25 µM | 7.02 µM | > 25 µM | 5.5 µM | 17.1 µM | 14.6 µM | > 25 µM | 4.43 µM | 16.3 µM
2 | CC(=O)OC1CC2C(C)(C)C(=O)C=C[C@]2(C)C2CCC3(C)C(=CC(=O)C3c3ccoc3)[C@]12C (stereo partly specified) |  | 26.1 µM |  | 37.8 µM |  | 33.1 µM |  | 35.6 µM |  | 31.4 µM |  | 24.9 µM |  | 31.6 µM |  | 34.6 µM |  | > 100 µM |  | 10.1 µM
3 | CN(Cc1cc(Cl)cc(Cl)c1)CC(C(=O)c1ccccc1)c1ccccc1 (stereo unspecified) |  | 1.84 µM |  | 19.1 µM |  | 68.6 µM |  | > 100 µM |  | 5.91 µM |  | 2.36 µM |  | 14.3 µM |  | 16.3 µM |  | 9.07 µM |  | > 25.6 µM
4 | CC[N+]1(C)CCC(O)(c2ccc(OC)cc2)C(C(=O)c2ccc(OC)cc2)C1 (stereo unspecified) |  | 25.3 µM |  | 35.3 µM |  | 56 µM |  | 33.7 µM |  | 34.3 µM |  | 28.1 µM |  | 38.4 µM |  | 10.6 µM |  | 11 µM |  | 23.9 µM
5 | Nc1ccn(C2OC(COC(=O)C34CC5CC(CC(C5)C3)C4)C(O)C2O)c(=O)n1 (stereo unspecified) |  | > 100 µM |  | > 100 µM |  | > 100 µM |  | > 100 µM |  | > 100 µM |  | > 100 µM |  | > 100 µM |  | > 100 µM |  | > 100 µM |  | > 100 µM
6 | OCC(O)c1nc2ccc3[nH]ncc3c2c2c1CCCC2 (stereo unspecified) | 1.5 µM | > 50 µM | 1.53 µM | > 50 µM | 1.22 µM | 4.64 µM | 2.23 µM | > 50 µM | 1.1 µM | 3.85 µM | 1.24 µM | > 50 µM | 0.96 µM | 2.73 µM | 1.23 µM | 3.43 µM | 0.971 µM | > 50 µM | 0.612 µM | 1.45 µM
7 | Cc1sc2c(c1C)C(c1ccc(Cl)cc1)=N[C@@H](CC(=O)OC(C)(C)C)c1nnc(C)n1-2 | 0.308 µM and 0.157 µM | 13.4 µM and 13.7 µM | 11.9 µM and 10.4 µM | 25 µM and 22.7 µM | 11.5 µM and 4.73 µM | 26.2 µM and 21.8 µM | 0.756 µM and 0.326 µM | 19.4 µM and 15.6 µM | 0.22 µM and 0.0673 µM | 11.2 µM and 13.9 µM | 0.44 µM and 0.311 µM | 16.4 µM and 15.4 µM | 0.107 µM and 0.0685 µM | 20.3 µM and 15.8 µM | 0.378 µM and 0.143 µM | 11.7 µM and 3.8 µM | 0.0513 µM and 0.0532 µM | 18.2 µM and 15.1 µM | 1.95 µM and 0.737 µM | 19 µM and 9.28 µM
8 | CCC(CNc1cc(OC)cc2cccnc12)NC1CCCCC1 (stereo unspecified) | 34.9 µM | > 100 µM | 61 µM | > 100 µM | 33.2 µM | > 100 µM | > 100 µM | > 100 µM | 28.6 µM | > 100 µM | 10.9 µM | 27.9 µM | 40.1 µM | > 100 µM | 11.3 µM | 24.6 µM | 21.9 µM | > 100 µM | 71.2 µM | > 100 µM
9 | O=C(Nc1cccc(O)c1)C(=O)C(C(=O)c1ccc(Cl)c(Cl)c1)C1OC(=O)c2ccccc21 (stereo unspecified) |  | 35 µM |  | 65.2 µM |  | 33.7 µM |  | 51.1 µM |  | 33.8 µM |  | 48.2 µM |  | 31.8 µM |  | 30.7 µM |  | 75 µM |  | 37.2 µM
10 | COc1ccc(OC)c2c1[nH]c(=O)c1c3ncccc3cn21 | 3.27 µM | > 100 µM |  |  | 4.21 µM | > 100 µM | 4.63 µM | > 100 µM | 1.8 µM | 4.29 µM | 1.85 µM | 13.2 µM | 4.43 µM | > 100 µM | 2.79 µM | > 100 µM | 3.23 µM | > 100 µM | 1.38 µM | 4.47 µM
11 | Cc1nc(N2CCC3(CC2)CO[C@@H](C)[C@H]3N)c(CO)nc1Sc1ccnc(N)c1Cl | > 100 µM | > 100 µM | > 100 µM | > 100 µM | 12.8 µM | > 100 µM | 0.789 µM | > 100 µM | 72.4 µM | > 100 µM | 59.7 µM | > 100 µM | > 100 µM | > 100 µM | > 73.4 µM | > 100 µM | 0.194 µM | > 100 µM | 2.53 µM | > 30.6 µM
12 | CC(C)(C)CC(C)(C)NCc1cc(C(C)(C)C)cc(CNC(C)(C)CC(C)(C)C)c1O | 3.22 µM | 12.5 µM | 3.02 µM | 10 µM | 5.4 µM | 18.7 µM | 2.52 µM | 8.45 µM | 1.6 µM | 3.1 µM | 2.1 µM | 5.78 µM | 3.34 µM | 12.3 µM | 1.41 µM | 2.8 µM | 3.69 µM | 17.2 µM | 1.92 µM | 5.85 µM
13 | CO[C@H](C(=O)[C@@H](O)[C@@H](C)O)[C@@H]1Cc2cc3cc(OC4CC(OC5CC(O)C(O)C(C)O5)C(O)C(C)O4)c(C)c(O)c3c(O)c2C(=O)[C@H]1OC1CC(OC2CC(OC3CC(C)(O)C(O)C(C)O3)C(O)C(C)O2)C(O)C(C)O1 (stereo partly specified) | 0.286 µg/mL and 0.843 µg/mL |  | 0.0328 µg/mL and 0.113 µg/mL |  | 0.0242 µg/mL and 0.0192 µg/mL |  | 0.0437 µg/mL |  | 0.0262 µg/mL |  | 0.0194 µg/mL and 0.0116 µg/mL |  | 0.011 µg/mL |  | 0.0144 µg/mL and 0.0182 µg/mL |  | 0.11 µg/mL and 0.0722 µg/mL |  | 0.0201 µg/mL | 
14 | COc1cc(Nc2nc3ccccc3cc2C(=O)Nc2ccc(F)c(F)c2)cc(OC)c1OC | 2.91 µM | > 100 µM | 4.29 µM | > 100 µM | 3.96 µM | > 100 µM | 2.65 µM | 7.8 µM | 2.66 µM | 8.75 µM | 2.84 µM | 9.08 µM | 1.68 µM | 4.46 µM | 1.77 µM | 3.78 µM | 2.72 µM | > 100 µM | 2.73 µM | 7.98 µM
15 | Cc1ccc(S(=O)(=O)NNC(=O)c2cc(C)c(C)cc2N)cc1 |  | > 100 µM |  | > 100 µM |  |  |  | > 100 µM |  | > 100 µM |  | > 100 µM |  | > 100 µM |  | > 100 µM |  | > 100 µM |  | > 100 µM
16 | CN(C)c1nc(=Nc2cccc(Cl)c2)ss1 |  | 27.9 µM |  | 74.6 µM |  | 30.4 µM |  | > 100 µM |  | 27.8 µM |  | 24.2 µM |  | 23.4 µM |  |  |  | 33.4 µM |  | 31.7 µM

Reference: PubChem BioAssay (NCI)
